Two molecules from US20260174717A1 (Sumitomo Pharma America, Inc., priority 2022, published 2026) can be followed below.

Test [1] has as its system Male Swiss mice. The test can be described thus: mouse activity meter test (general locomotor activity). It counts as in vivo. To be noted: 4 mg/kg, ip; positive assay control; 30 minutes after dosing, recorded for 30 minutes. Here is the method: (§1) Thirty minutes later mice were individually placed in transparent plastic cages with 5 cm of sawdust on the floor and 25 marbles grouped in the center of the cage. The number of marbles covered by sawdust (2/3rd or more covered) was counted at the end of the 30 min test. Two days later, general locomotor activity was assessed in the activity meter test in the same animals. Mice were placed in an automated activity meter apparatus 30 minutes after dosing and the number of crossings recorded in 5-minute time bins for 30 minutes. Chlorpromazine (4 mg/kg, i.p.) was included as a positive assay control. […] Locomotor activity was analyzed by one-way ANOVA followed by Dunnett's post-hoc analysis. Effects of clobazam in the marble burying and activity meter tests were examined with the Mann-Whitney U test and unpaired student's t-test, respectively.

In test [2] the test system is Male Swiss mice. The test is described as follows: mouse marble burying test. Type of test: in vivo. To be noted: 8 mg/kg, ip; positive control; 30 min before 30 min test. Here is the method: as §1

SMILES strings stand for the structures. Marks after values point to notes of the source that are not given here.

As for `CN(C)CCCN1c2ccccc2Sc2ccc(Cl)cc21` [Chlorpromazine], the “Number of crossings (Mean ± SEM)” value in test [1] is given as 3.6 ± 0.7^a.
As for `CN1C(=O)CC(=O)N(c2ccccc2)c2cc(Cl)ccc21` [Clobazam, clobazam], in test [2], the “Number of marbles buried (Mean ± SEM)” value is 0.5 ± 0.3^a.
